Source: US4921846A, “Novel 17-hetero substituted steroids” (Roussel Uclaf, priority 1987, dated 1990)

What was measured:
[1] = target: T1, Progestogene receptor of the uterus of a rabbit (Oryctolagus cuniculus, UniProt P06186); assay: Progestogene receptor of the uterus of a rabbit, relative bond affinity; assay type: binding; details: for relative bond affinity (RBA), Progestogene: RBA=100(CH)/(CX)
T1 construct: The uteri were removed, weighted and homogenized at 0° C; from tissue; host or cells: uterus of estradiol-treated impuberal female rabbits, 105,000 g supernatant (cytosol)
T1 sequence (P06186 1-930): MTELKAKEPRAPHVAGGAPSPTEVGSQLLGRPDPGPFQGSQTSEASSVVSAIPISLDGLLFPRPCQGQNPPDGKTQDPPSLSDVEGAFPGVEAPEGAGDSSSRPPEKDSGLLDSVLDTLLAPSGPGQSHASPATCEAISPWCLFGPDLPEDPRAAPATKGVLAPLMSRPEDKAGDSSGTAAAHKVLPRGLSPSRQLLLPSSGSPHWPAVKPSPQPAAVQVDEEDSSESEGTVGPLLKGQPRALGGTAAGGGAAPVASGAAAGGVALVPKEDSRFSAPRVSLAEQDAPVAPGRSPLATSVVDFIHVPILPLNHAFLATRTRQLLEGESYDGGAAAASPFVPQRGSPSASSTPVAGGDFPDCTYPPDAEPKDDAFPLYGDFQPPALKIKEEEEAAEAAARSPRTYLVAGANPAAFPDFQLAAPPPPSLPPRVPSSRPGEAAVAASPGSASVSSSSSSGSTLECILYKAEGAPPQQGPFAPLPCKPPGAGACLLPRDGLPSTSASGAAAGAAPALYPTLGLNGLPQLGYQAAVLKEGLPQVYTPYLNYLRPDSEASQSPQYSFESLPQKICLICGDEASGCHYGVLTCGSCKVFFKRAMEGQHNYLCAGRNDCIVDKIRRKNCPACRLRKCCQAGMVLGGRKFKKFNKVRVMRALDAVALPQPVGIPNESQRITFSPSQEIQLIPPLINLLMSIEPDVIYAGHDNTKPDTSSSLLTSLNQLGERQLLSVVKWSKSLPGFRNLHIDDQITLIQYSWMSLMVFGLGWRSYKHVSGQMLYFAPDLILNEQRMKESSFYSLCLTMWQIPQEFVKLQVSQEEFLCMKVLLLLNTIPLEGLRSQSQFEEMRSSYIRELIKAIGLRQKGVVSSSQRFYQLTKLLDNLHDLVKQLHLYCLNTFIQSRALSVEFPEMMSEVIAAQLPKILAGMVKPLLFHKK
Description: Impuberal female rabbits of about 1 kg received a cutaneous application of […] of estradiol and, 5 days after this treatment, the animals were killed. The uteri were removed, weighted and homogenized at 0° C. in a Potter teflon-dish in a buffered solution TS (Tris 10 mM, saccharose 0.25M, HCl pH 7.4) (1 g of tissue per 50 ml of TS). The homogenate was then ultra-centrifuged (105,000 g×90 minutes) at 0° C. and aliquots of the supernatant thus obtained were incubated at 0° C. for a time t, with a constant concentration (T) of tritiated product R (17,21-dimethyl-19-nor-Δ^4,9 -pregnadien-3,20-dione) in the presence of increasing concentrations (0-2500×10^-9 M) either of cold R, or of cold progesterone or of the cold product under test. The concentration of bonded tritiated R (B) […] by the technique of adsorption on dextran carbon.
(§1) The calculation of the relative bond affinity (RBA) was the same for all the receptors. The following 2 curves were drawn: the percentage of bonded tritiated hormone B/T as a function of the logarithm of the concentration of the cold reference hormone and B/T as a function of the logarithm of the concentration of the cold product under test. The straight line of the equation I50 =(B max/T+B min/T)/2 was determined. B/T max = percentage of bonded tritiated hormone for an incubation of this hormone tritiated at a concentration (T). B/T min = percentage of bonded tritiated hormone for an incubation of this tritiated hormone at a concentration (T) in the presence of a large excess of cold hormone (2500×10^-9 M). The intersections of the straight line I50 and the curves enables the concentrations of cold reference hormone (CH) and of cold product under test (CX) which inhibit by 50% the bond of the tritiated hormone on the receptor to be evaluated. The relative bond affinity (RBA) of the product tested was determined by the equation: […]

[2] = target: T2, Glucocorticoid receptor of the thymus of a rat (Rattus norvegicus, UniProt P06536); assay: Glucocorticoid receptor of the thymus of a rat, relative bond affinity; assay type: binding; details: for relative bond affinity (RBA), Glucocorticoid: RBA=100(CH)/(CX), reference dexamethasone
T2 construct: The thymuses were removed and homogenized at 0° C; from tissue; host or cells: thymus of adrenalectomized male Sprague-Dawley rats, 105,000 g supernatant (cytosol)
T2 sequence (P06536 1-795): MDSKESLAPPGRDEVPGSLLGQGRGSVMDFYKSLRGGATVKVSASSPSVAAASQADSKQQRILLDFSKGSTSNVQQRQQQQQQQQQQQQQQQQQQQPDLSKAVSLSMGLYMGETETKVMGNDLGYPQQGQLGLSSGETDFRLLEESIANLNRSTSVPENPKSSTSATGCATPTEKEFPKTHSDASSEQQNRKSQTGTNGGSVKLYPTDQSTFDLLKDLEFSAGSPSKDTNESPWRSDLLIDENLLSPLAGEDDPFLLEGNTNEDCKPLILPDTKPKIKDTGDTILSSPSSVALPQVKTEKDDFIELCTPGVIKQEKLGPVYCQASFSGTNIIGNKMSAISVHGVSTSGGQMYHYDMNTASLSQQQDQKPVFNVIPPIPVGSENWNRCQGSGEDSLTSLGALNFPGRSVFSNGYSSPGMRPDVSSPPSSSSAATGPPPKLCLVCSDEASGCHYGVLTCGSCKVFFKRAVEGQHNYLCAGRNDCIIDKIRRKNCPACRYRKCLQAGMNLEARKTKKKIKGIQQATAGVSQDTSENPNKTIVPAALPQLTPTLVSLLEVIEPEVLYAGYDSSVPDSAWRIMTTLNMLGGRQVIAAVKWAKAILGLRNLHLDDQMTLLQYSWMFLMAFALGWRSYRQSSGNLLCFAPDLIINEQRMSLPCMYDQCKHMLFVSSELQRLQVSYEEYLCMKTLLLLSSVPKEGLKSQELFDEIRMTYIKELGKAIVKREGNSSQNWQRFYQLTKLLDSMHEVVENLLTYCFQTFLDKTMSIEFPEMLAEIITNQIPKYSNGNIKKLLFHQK
Description: Sprague-Dawley EPOS male rats weighting 160 to 200 g were suprarenalectomized and, 4 to 8 days after this removal, the animals were killed. The thymuses were removed and homogenized at 0° C. in a buffer Tris 10 mM, saccharose 0.25M, dithiothreitol 2 mM, HCl, pH 7.4, with Potter polytetrafluoroethylene-dish (1 g of tissue per 10 ml of TS). The homogenate was then ultra-centrifuged (105,000 g×90 minutes) at 0° C. Aliquots of the supernatant thus obtained were incubated at 0° C. for a time t, with a constant concentration (T) of tritiated dexamethasone in the presence of increasing concentrations (0-2500×10^-9 M) either of cold dexamethasone, or of cold product under test. The concentration of bonded tritiated […] (B) was then measured in each incubate by the technique of adsorption on dextran carbon.
as §1

female rat = assay: Abortive activity in a female rat; assay type: in vivo; details: 3 mg/kg on day D9 of gestation, suspension in carboxymethyl cellulose containing 0.5% Tween; examined 72 hours after treatment
Description: Day D1 of gestation was determined by the presence of spermatozoids in the vaginal smear and, on day D9 of the gestation, the product was administered in suspension in carboxymethyl cellulose containing 0.5% Tween. The animals were killed 72 hours after the treatment and the uterus was examined to determine the state of gestation.

[3] = system: Thymocytes of suprarenalectomized rats; assay: Antiglucocorticoid activity: tritiated uridin incorporation in thymocytes with dexamethasone; assay type: cell-based; details: Rattus norvegicus, Thymocyte, 5.10^-8 M dexamethasone, 37° C., read-out: % inhibition of the effect of dexamethasone; for inhibition at 1 µM: product at 10^-6 M; for inhibition at 0.1 µM: product at 10^-7 M; for inhibition at 0.01 µM: product at 10^-8 M
Description: The technique used was derived from the method described by Dausse et al in Molecular Pharmacology, Vol. 13, p.
Thymocytes of suprarenalectomized rats were incubated at 37° C. for 3 hours in a nutritive medium containing 5.10^-8 M of dexamethasone in the presence or absence of a product test at various concentrations. Tritiated uridin was added and incubation was continued for one hour. The incubates were cooled, treated with a 5% solution of trichloroacetic acid, filtered on Whatman GF/A paper and washed three time with a 5% solution of trichloroacetic acid. The radioactivity retained by the filter was determined. Glucocorticoids and, in particular dexamethasone, cause a decrease in the incorporation of tritiated uridin.

SMILES	relative bond affinity (RBA), Progestogene ([1]; Incubation Time at 0° C.: 2 H)	relative bond affinity (RBA), Progestogene ([1]; Incubation Time at 0° C.: 4 H)	affinity for progestogen receptors (in words) ([1]; conclusion)	relative bond affinity (RBA), Glucocorticoid ([2]; Incubation Time at 0° C.: 2 H)	relative bond affinity (RBA), Glucocorticoid ([2]; Incubation Time at 0° C.: 4 H)	affinity for glucocorticoid receptors (in words) ([2]; conclusion)	abortion (state of gestation) (female rat)	inhibition at 1 µM [3]	inhibition at 0.1 µM [3]	inhibition at 0.01 µM [3]
CN(C)c1ccc([C@H]2C[C@@]3(C)[C@@H](CC[C@@]34CCO4)[C@@H]3CCC4=CC(=O)CCC4=C32)cc1 [Example 1, (17R) 11β-[4-(dimethylamino)-phenyl]-spiro-(Δ^4,9-estradien-17,2'-oxetan)-3-one]	93	415	marked affinity	126	43	marked affinity	complete abortion in all the animals of the group	122%	55%	16%
CSc1ccc([C@H]2C[C@@]3(C)[C@@H](CC[C@@]34CCO4)[C@@H]3CCC4=CC(=O)CCC4=C32)cc1 [Example 2, (17R) 11β-[4-(methylthio)-phenyl]-spiro-(Δ^4,9-estradient-17,2'-oxetan)-3-one]	23	67		56	22			76%	27%	10%
CN(C)c1ccc([C@H]2C[C@@]3(C)[C@@H](CC[C@@]34CCCCO4)[C@@H]3CCC4=CC(=O)CCC4=C32)cc1 [Example 3, (17S) 11β-[4-(dimethylamino)-phenyl]-3',4',5',6'-tetrahydro spiro (Δ^4,8-estradien-17,2'-(2H)pyran)-3-one]	24	157		23	24			93%	22%	7%
